For this experiment, the system named is Aβ42. The experiment in a line: In vitro cell screening assay in H4 cells expressing human APP751: Aβ42 by sandwich ELISA. The conditions noted are these: compounds 0.003-10 μM, incubated overnight (16-18 h), sandwich ELISA of supernatant. The format is cell-based. The method in brief:
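Secreted Aβ42 measured by sandwich ELISA, C-terminal-specific capture and 4G8-HRP detection, TMB read at 450 nm, from supernatants of APP751-expressing H4 cells exposed overnight (16-18 h) to 0.003-10 μM compound in Pro293 medium, 0.33% DMSO. Data scaled between DMSO and DAPT controls; EC50 from variable-slope nonlinear regression.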
In general terms: ELISA stands for enzyme-linked immunosorbent assay.

Molecules are shown by their SMILES.

A word on the EC50: it is the concentration at which the effect is half-maximal. A lower EC50 goes with a more potent agent. Turning to `COc1nc(C2=NOC[C@H](c3cc4c(C)cccc4o3)N2)ccc1-n1cnc(C)c1` [Example 19, (R)-3-(6-Methoxy-5-(4-methyl-1H-imidazol-1-yl)pyridin-2-yl)-5-(4-methylbenzofuran-2-yl)-5,6-dihydro-4H-1,2,4-oxadiazine], the EC50 (Homo sapiens) turned out to be 11.5 nM.
With `COc1nc(C2=NOCC(c3cc(F)c(F)c(F)c3)N2)ccc1-n1cnc(C)c1` (single isomer, unassigned; (+)) [Example 91B, (+)-3-(6-methoxy-5-(4-methyl-1H-imidazol-1-yl)pyridin-2-yl)-5-(3,4,5-trifluorophenyl)-5,6-dihydro-4H-1,2,4-oxadiazine], the EC50 was 36.5 nM.
On to `COc1nc(C2=NOCC(c3cn(C)c4ccc(F)cc34)N2)ccc1-n1cnc(C)c1` (single isomer, unassigned; (-)) [Example 190A, (−)-5-(5-fluoro-1-methyl-1H-indol-3-yl)-3-(6-methoxy-5-(4-methyl-1H-imidazol-1-yl)pyridin-2-yl)-5,6-dihydro-4H-1,2,4-oxadiazine], for which the midpoint of the response, the EC50, lay at 287 nM.
Consider `COc1nc(C2=NOCC(C)N2)ccc1-n1cnc(C)c1` (single isomer, unassigned; (-)) [Example 149B, (−)-3-(6-methoxy-5-(4-methyl-1H-imidazol-1-yl)pyridin-2-yl)-5-methyl-5,6-dihydro-4H-1,2,4-oxadiazine], for which the EC50 is > 3000 nM.
Still for that read-out and setting: next, `COc1nc(C2=NOCC(c3csc4ccccc34)N2)ccc1-n1cnc(C)c1` (single isomer, unassigned; (+)) [Example 68B, (+)-5-(benzo [b]thiophen-3-yl)-3-(6-methoxy-5-(4-methyl-1H-imidazol-1-yl)pyridin-2-yl)-5,6-dihydro-4H-1,2,4-oxadiazine]: 20.8 nM.
Same read-out and setting: then `COc1nc(C2=NOCC(c3ccc(F)c(Cl)c3)N2)ccc1-n1cnc(C)c1` (single isomer, unassigned; (+)) [Example 108B, (+)-5-(3-chloro-4-fluorophenyl)-3-(6-methoxy-5-(4-methyl-1H-imidazol-1-yl)pyridin-2-yl)-5,6-dihydro-4H-1,2,4-oxadiazine], with 23.2 nM; and `COc1nc(C2=NOCC(c3ccc4c(c3)OC(F)(F)O4)N2)ccc1-n1cnc(C)c1` (single isomer, unassigned; (+)) [Example 225B], with 14 nM.
On the same count and under the same terms, next, `COc1nc(C2=NOCC(c3ccc(F)cc3)N2)ccc1-n1cnc(C)c1` (single isomer, unassigned) [Example 40A, 5-(4-fluorophenyl)-3-(6-methoxy-5-(4-methyl-1H-imidazol-1-yl)pyridin-2-yl)-5,6-dihydro-4H-1,2,4-oxadiazine]: > 3000 nM.
Turning to `COc1nc(C2=NOCC(C(C)(C)C)N2)ccc1-n1cnc(C)c1` (single isomer, unassigned; (+)) [Example 147B, (+)-5-(tert-butyl)-3-(6-methoxy-5-(4-methyl-1H-imidazol-1-yl)pyridin-2-yl)-5,6-dihydro-4H-1,2,4-oxadiazine], it took 1720 nM to reach a half-maximal effect (EC50).
As for `COc1nc(C2=NOCC(c3cccc(Cl)c3)N2)ccc1-n1cnc(C)c1` (single isomer, unassigned; (+)) [Example 244B, (+)-5-(3-chlorophenyl)-3-(6-methoxy-5-(4-methyl-1H-imidazol-1-yl)pyridin-2-yl)-5,6-dihydro-4H-1,2,4-oxadiazine], the EC50 is 26.3 nM.
Same read-out and setting: next, `COc1nc(C2=NOCC(c3cc4ccc(C5CC5)cc4o3)N2)ccc1-n1cnc(C)c1` (single isomer, unassigned; (-)) [Example 236A, (−)-5-(6-cyclopropylbenzofuran-2-yl)-3-(6-methoxy-5-(4-methyl-1H-imidazol-1-yl)pyridin-2-yl)-5,6-dihydro-4H-1,2,4-oxadiazine]: 397 nM.
On the same count and under the same terms, then `COc1nc(C2=NOCC(c3cccc(C(F)(F)F)c3)N2)ccc1-n1cnc(C)c1` (single isomer, unassigned; (-)) [Example 113A, (−)-3-(6-methoxy-5-(4-methyl-1H-imidazol-1-yl)pyridin-2-yl)-5-(3-(trifluoromethyl)phenyl)-5,6-dihydro-4H-1,2,4-oxadiazine], with > 3000 nM; and `COc1nc(C2=NOCC(c3cn(C)c4cccc(C(F)(F)F)c34)N2)ccc1-n1cnc(C)c1` (single isomer, unassigned; (-)) [Example 230B, (−)-3-(6-methoxy-5-(4-methyl-1H-imidazol-1-yl)pyridin-2-yl)-5-(1-methyl-4-(trifluoromethyl)-1H-indol-3-yl)-5,6-dihydro-4H-1,2,4-oxadiazine], with 25.2 nM.
`COc1nc(C2=NOCC(c3cc4c(F)cccc4o3)N2)ccc1-n1cnc(C)c1` (single isomer, unassigned; (-)) [Example 99B, (−)-5-(4-fluorobenzofuran-2-yl)-3-(6-methoxy-5-(4-methyl-1H-imidazol-1-yl)pyridin-2-yl)-5,6-dihydro-4H-1,2,4-oxadiazine] displayed an EC50 of 25.7 nM.
In turn, `COc1nc(C2=NOCC(c3ccc(Cl)c(C(F)F)c3)N2)ccc1-n1cnc(C)c1` (single isomer, unassigned; (-)) [Example 270A, (−)-5-(4-chloro-3-(difluoromethyl)phenyl)-3-(6-methoxy-5-(4-methyl-1H-imidazol-1-yl)pyridin-2-yl)-5,6-dihydro-4H-1,2,4-oxadiazine] had an EC50 of 418 nM.
With `COc1nc(C2=NOCC(c3cn(C(C)C)c4cc(F)ccc34)N2)ccc1-n1cnc(C)c1` (single isomer, unassigned; (-)) [Example 219B, (−)-5-(6-fluoro-1-isopropyl-1H-indol-3-yl)-3-(6-methoxy-5-(4-methyl-1H-imidazol-1-yl)pyridin-2-yl)-5,6-dihydro-4H-1,2,4-oxadiazine], the EC50 was found to be 194 nM.
`COc1nc(C2=NOCC(c3ccccc3Cl)N2)ccc1-n1cnc(C)c1` (single isomer, unassigned) [Example 136B, 5-(2-chlorophenyl)-3-(6-methoxy-5-(4-methyl-1H-imidazol-1-yl)pyridin-2-yl)-5,6-dihydro-4H-1,2,4-oxadiazine] displayed a concentration for a half-maximal effect (EC50) of 775 nM.
The same measure, in the same setting: next, `COc1nc(C2=NOCC(c3ccc(C(C)(C)C)cc3)N2)ccc1-n1cnc(C)c1` (single isomer, unassigned; (-)) [Example 235A, (−)-5-(4-(tert-butyl)phenyl)-3-(6-methoxy-5-(4-methyl-1H-imidazol-1-yl)pyridin-2-yl)-5,6-dihydro-4H-1,2,4-oxadiazine]: 763 nM; `COc1nc(C2=NOCC(c3ccc(F)c(F)c3)N2)ccc1-n1cnc(C)c1` (single isomer, unassigned; (-)) [Example 75A, (−)-5-(3,4-difluorophenyl)-3-(6-methoxy-5-(4-methyl-1H-imidazol-1-yl)pyridin-2-yl)-5,6-dihydro-4H-1,2,4-oxadiazine]: > 3000 nM.
The compound `COc1nc(C2=NOCC(c3cn(C(C)C)c4cc(F)ccc34)N2)ccc1-n1cnc(C)c1` (single isomer, unassigned; (+)) [Example 219A, (+)-5-(6-fluoro-1-isopropyl-1H-indol-3-yl)-3-(6-methoxy-5-(4-methyl-1H-imidazol-1-yl)pyridin-2-yl)-5,6-dihydro-4H-1,2,4-oxadiazine] yielded an EC50 of 9.2 nM.

These data come from patent publication US9802927B2, “Oxadiazine compounds and methods of use thereof” (Denali Therapeutics, Inc., priority 2015, dated 2017).
